From patent US5656452A, “NF-ATp, ' a T lymphocyte DNA-binding protein” (President and Fellows of Harvard College, priority 1993, dated 1997)

How the values were obtained:
[1] = system: Ar-5 T cells (NF-AT induction, IL-2 gene expression); assay: Induction of NF-AT and IL-2 gene expression in activated Ar-5 T cells; type: cell-based, murine; conditions: Ar-5 cells activated through T cell antigen receptor/CD3
Procedure: For preparation of nuclear extracts from activated T cells, cells were incubated for two hours with cross-linked anti-CD3ε monoclonal antibody (145-2C11, Kubo, R. T., Born, W., Kappler, J. W., Marrack, P., and Pigeon, M. (1989) J. Immunol. 142, 2736-2742) in the presence or absence of 1 μM CsA. Activation conditions and preparation of nuclear extracts was exactly as previously described (McCaffrey, P. G., Jain, J., Jamieson, C., Sen, R., and Rao, A. (1992) J. Biol. Chem. 267, 1864-1871). Protein determinations were done by the method of Bradford (Bradford, M. (1976) Anal. Biochem. 72,248-254), using bovine serum albumin as a standard.
To characterize the preexisting, DNA-binding component of NF-AT, we have used the murine IL-2 dependent T cell clone Ar-5. Activation of Ar-5 cells with monoclonal antibodies to the T cell antigen receptor or its associated CD3 complex causes the rapid appearance in the nucleus of several inducible transcription factor including NF-AT, which is followed by expression of the IL-2 gene and cell proliferation (Jamieson, C., McCaffrey, P. G., Rao, A., and Sen, R. (1991) J. Immunol. 147,416-420). […] We have previously established that unactivated Ar-5 cells contain a protein or proteins, extracted under hypotonic lysis conditions, that can bind in the EMSA to an oligonucleotide comprising the distal NF-AT sequence from the murine IL-2 promoter. […]

[2] = system: NF-ATp dephosphorylation in Ar-5 T cell extracts; assay: Dephosphorylation of NF-ATp (apparent molecular weight by SDS-PAGE, renaturation, EMSA) in extracts of drug-treated Ar-5 T cells; type: cell-based, murine; conditions: prior treatment of T cells for 10 minutes with 1 μM CsA or 100 nM FK506 before lysis
Procedure: To prepare hypotonic extracts, cells were harvested by centrifugation, washed with phosphate buffered saline and resuspended to 10^8 cells/ml in buffer containing 7.5 mM Tris (pH 7.6), 2 mM PMSF, 1 mM MgCl2, 0.5 mM DTT, 0.25 mM leupeptin, 0.1 mM EDTA and 1 mg/ml aprotinin. The cells were lysed by quick-freezing in dry ice and rapid thawing in a room-temperaturewater bath, followed by centrifugation at 12,000 x g for 10 minutes. Where indicated, cells were treated before harvesting with 1 μM CsA (Sandoz Corp.) or 100 nM FK506 (Fujisawa Pharmaceutical) for 10 minutes at 37° C.
Hypotonic or nuclear extracts were boiled in SDS-PAGE sample buffer (65 mM Tris, pH 6.8, 2% SDS, 2% 2-mercaptoethanol, 10% glycerol, 0.01 mg/ml bromphenol blue) and fractionated on 3 mm thick SDS-polyacrylamide gels by standard methods (Laemmli, U. K. (1970) Nature 227, 680-685). Molecular weight standards (BioRad Laboratories) were also run on the same gel. After electrophoresis, the standards were cut off and separately stained. For recovery of proteins from the gels, slices (1 cm×0.5 cm) from wet, unfixed gels were crushed and eluted overnight in 50 mM Tris, pH 7.9, 1 mM DTT, 0.2 mM EDTA, 0.1 mM PMSF, 0.1 mg/ml BSA, 2.5% glycerol and 0.1% SDS (Baeuerle, P., and Baltimore, D. (1988) Cell 53, 211-217). […]

C=CC[C@@H]1/C=C(\C)C[C@H](C)C[C@H](OC)[C@H]2O[C@@](O)(C(=O)C(=O)N3CCCC[C@H]3C(=O)O[C@H](/C(C)=C/[C@@H]3CC[C@@H](O)[C@H](OC)C3)[C@H](C)[C@@H](O)CC1=O)[C@H](C)C[C@@H]2OC [FK506]
Induction of NF-AT and subsequent IL-2 gene expression [1]: completely blocked | Dephosphorylation of NF-ATp in cell extracts [2]: inhibited
